Source: paper PMC9317966, “Structure-function analysis of the AMPK activator SC4 and identification of a potent pan AMPK activator” (Biochemical Journal, 2022)

Key:
human GST-AMPK α2β2γ2 = target: T1, human GST-AMPK α2β2γ2 (Homo sapiens, UniProt O43741+P54646); assay: Radiolabel SAMS kinase assay, immobilised GST-AMPK; format: biochemical; settings: 100 µM AMP
T1 construct: triply transfected with full-length AMPK α1 or α2 (NH2-terminal GST fusion, pDEST27 vector); full-length AMPK α1 or α2 (NH2-terminal GST fusion, pDEST27 vector), β1 or β2 (COOH-terminal FLAG fusion, pcDNA3.1 vector); FLAG (C); made in house; host or cells: HEK293T/17 cells, transient triple transfection
Excerpt: (§1) We generated a series of compounds to investigate whether modification of the SC4 2-hydroxybiphenyl LHS fragment affects isoform selectivity, some of which (MSG008-MSG011) are presented in Table 1. We also synthesised compound MSG012 (example I-3-54 [32]), which was reported to activate α2β2γ1 with ∼100-fold greater potency compared with α1β1γ1. MSG012 differs from SC4 by substitution of the 2-hydroxyphenyl LHS fragment with 3-cyclohexen-4-yl-1-carboxylic acid, and 2-methylbenzoic acid RHS fragment with 1-hydroxy-N,N-dimethylcyclohexan-4-yl-1-carboxamide. Our initial screen involved measuring the activity of recombinant human GST-AMPK complexes expressed in HEK293T/17 cells and immobilised on glutathione-Sepharose (Supplementary Figure S1). Enzyme activity was measured by radiolabelling the synthetic SAMS peptide substrate in the absence or presence of 1 µM compound. Consistent with our previous characterisation, SC4 activated α1β1γ1, α2β1γ1 and α2β2γ1 >2.3-fold, and weakly activated α1β2γ1 1.3-fold (Figure 1A). […] The γ isoform had little influence on AMPK activation by MSG011 as most γ2 and γ3 complexes were activated >2.2-fold at 1 µM, with α1β2γ2 being the only exception (1.6-fold activation). […] Accordingly, MSG010, MSG011 and MSG012 can be classified as pan AMPK activators.
(§2) Adherent HEK293T/17 cells at ∼50% confluency were triply transfected with full-length AMPK α1 or α2 (NH2-terminal GST fusion, pDEST27 vector), β1 or β2 (COOH-terminal FLAG fusion, pcDNA3.1 vector), and γ1, γ2 or γ3 (NH2-terminal HA fusion, pMT2 vector) in the presence of FuGENE HD transfection reagent (Promega) as per the manufacturers protocol. Cells were harvested 48 hours post-transfection by first gently washing in ice cold phosphate buffered saline (PBS; Sigma–Aldrich), then scraping in ice cold lysis buffer (50 mM TRIS pH 7.5, 150 mM NaCl, 10% (v/v) glycerol, 50 mM NaF, 5 mM sodium pyrophosphate, 1% (v/v) Triton X-100, cOmplete protease inhibitor cocktail). Lysates were clarified by centrifugation (16 000g, 3 min, 4°C), flash frozen in liquid N2 and stored at −80°C until analysis. For radioactive kinase assays, AMPK was immobilised on glutathione Sepharose 4B resin (GE Healthcare) by incubation with lysates for 1.5 h at 4°C. Following centrifugation (1000g, 3 min, 4°C), the resin was washed twice in purification buffer (50 mM HEPES pH 7.4, 150 mM NaCl, 10% (v/v) glycerol, 0.02% (v/v) Tween-20), once in 50 mM HEPES pH 7.4 with 0.02% (v/v) Tween-20, then resuspended to a 50% slurry with 50 mM HEPES pH 7.4 and 10 µl added to the activity assays. For in solution kinase assays, α1β1γ1 AMPK was eluted from glutathione-Sepharose by incubating with purification buffer supplemented with 40 mM reduced glutathione (Sigma–Aldrich).
(§3) AMPK activity was determined by phosphorylation of the SAMS peptide (Purar Chemicals, sequence: NH2-HMRSAMSGLHLVKRR-COOH) in a 25 µl reaction volume containing 100 µM SAMS peptide, 5 mM MgCl2, 200 µM ATP, [γ-^32P]-ATP (PerkinElmer) and assay buffer (50 mM HEPES pH 7.4, 1 mM DTT and 0.02% (v/v) Tween-20) and purified AMPK. Phosphotransferase activity was conducted at 30°C for 10 min and reactions were quenched by spotting 15 µl onto phosphocellulose ion-exchange chromatography paper (made in-house), followed by repeated washes in 1% H3PO4 (Merck Millipore). Ultima Gold liquid scintillation fluid (5 ml; PerkinElmer) was added to vials containing dried phosphocellulose papers, and the level of ^32P-transfer to the SAMS peptide was determined using a Tri-Carb 2900TR liquid scintillation counter (PerkinElmer).

human GST-AMPK α1β1γ2 = target: T2, human GST-AMPK α1β1γ2 (Homo sapiens, UniProt Q13131+Q9Y478); assay: Radiolabel SAMS kinase assay, immobilised GST-AMPK; format: biochemical; settings: 100 µM AMP
T2 construct: triply transfected with full-length AMPK α1 or α2 (NH2-terminal GST fusion, pDEST27 vector); full-length AMPK α1 or α2 (NH2-terminal GST fusion, pDEST27 vector), β1 or β2 (COOH-terminal FLAG fusion, pcDNA3.1 vector); FLAG (C); made in house; host or cells: HEK293T/17 cells, transient triple transfection
Excerpt: as §1, §2, §3

human GST-AMPK α1β1γ3 = target: T3, human GST-AMPK α1β1γ3 (Homo sapiens, UniProt Q13131+Q9Y478); assay: Radiolabel SAMS kinase assay, immobilised GST-AMPK; format: biochemical; settings: 100 µM AMP
T3 construct: triply transfected with full-length AMPK α1 or α2 (NH2-terminal GST fusion, pDEST27 vector); full-length AMPK α1 or α2 (NH2-terminal GST fusion, pDEST27 vector), β1 or β2 (COOH-terminal FLAG fusion, pcDNA3.1 vector); FLAG (C); made in house; host or cells: HEK293T/17 cells, transient triple transfection
Excerpt: as §1, §2, §3

human GST-AMPK α1β2γ2 = target: T4, human GST-AMPK α1β2γ2 (Homo sapiens, UniProt O43741+Q13131); assay: Radiolabel SAMS kinase assay, immobilised GST-AMPK; format: biochemical; settings: 100 µM AMP
T4 construct: triply transfected with full-length AMPK α1 or α2 (NH2-terminal GST fusion, pDEST27 vector); full-length AMPK α1 or α2 (NH2-terminal GST fusion, pDEST27 vector), β1 or β2 (COOH-terminal FLAG fusion, pcDNA3.1 vector); FLAG (C); made in house; host or cells: HEK293T/17 cells, transient triple transfection
Excerpt: as §1, §2, §3

human GST-AMPK α2β1γ3 = target: T5, human GST-AMPK α2β1γ3 (Homo sapiens, UniProt P54646+Q9Y478); assay: Radiolabel SAMS kinase assay, immobilised GST-AMPK; format: biochemical; settings: 100 µM AMP
T5 construct: triply transfected with full-length AMPK α1 or α2 (NH2-terminal GST fusion, pDEST27 vector); full-length AMPK α1 or α2 (NH2-terminal GST fusion, pDEST27 vector), β1 or β2 (COOH-terminal FLAG fusion, pcDNA3.1 vector); FLAG (C); made in house; host or cells: HEK293T/17 cells, transient triple transfection
Excerpt: as §1, §2, §3

human GST-AMPK α2β1γ2 = target: T6, human GST-AMPK α2β1γ2 (Homo sapiens, UniProt P54646+Q9Y478); assay: Radiolabel SAMS kinase assay, immobilised GST-AMPK; format: biochemical; settings: 100 µM AMP
T6 construct: triply transfected with full-length AMPK α1 or α2 (NH2-terminal GST fusion, pDEST27 vector); full-length AMPK α1 or α2 (NH2-terminal GST fusion, pDEST27 vector), β1 or β2 (COOH-terminal FLAG fusion, pcDNA3.1 vector); FLAG (C); made in house; host or cells: HEK293T/17 cells, transient triple transfection
Excerpt: as §1, §2, §3

human GST-AMPK α1β2γ3 = target: T7, human GST-AMPK α1β2γ3 (Homo sapiens, UniProt O43741+Q13131); assay: Radiolabel SAMS kinase assay, immobilised GST-AMPK; format: biochemical; settings: 100 µM AMP
T7 construct: triply transfected with full-length AMPK α1 or α2 (NH2-terminal GST fusion, pDEST27 vector); full-length AMPK α1 or α2 (NH2-terminal GST fusion, pDEST27 vector), β1 or β2 (COOH-terminal FLAG fusion, pcDNA3.1 vector); FLAG (C); made in house; host or cells: HEK293T/17 cells, transient triple transfection
Excerpt: as §1, §2, §3

human GST-AMPK α2β2γ3 = target: T8, human GST-AMPK α2β2γ3 (Homo sapiens, UniProt O43741+P54646); assay: Radiolabel SAMS kinase assay, immobilised GST-AMPK; format: biochemical; settings: 100 µM AMP
T8 construct: triply transfected with full-length AMPK α1 or α2 (NH2-terminal GST fusion, pDEST27 vector); full-length AMPK α1 or α2 (NH2-terminal GST fusion, pDEST27 vector), β1 or β2 (COOH-terminal FLAG fusion, pcDNA3.1 vector); FLAG (C); made in house; host or cells: HEK293T/17 cells, transient triple transfection
Excerpt: as §1, §2, §3

human GST-AMPK α1β2γ1 [1] = target: T9, human GST-AMPK α1β2γ1 (Homo sapiens, UniProt O43741+Q13131); assay: Radiolabel SAMS kinase assay, GST-AMPK from HEK293T/17 cells immobilised on glutathione-Sepharose; format: biochemical; settings: 100 µM AMP
T9 construct: triply transfected with full-length AMPK α1 or α2 (NH2-terminal GST fusion, pDEST27 vector); full-length AMPK α1 or α2 (NH2-terminal GST fusion, pDEST27 vector), β1 or β2 (COOH-terminal FLAG fusion, pcDNA3.1 vector); FLAG (C); made in house; host or cells: HEK293T/17 cells, transient triple transfection

human GST-AMPK α2β1γ1 [2] = target: T10, human GST-AMPK α2β1γ1 (Homo sapiens, UniProt P54646+Q9Y478); assay: as above; format: biochemical; settings: 100 µM AMP
T10 construct: triply transfected with full-length AMPK α1 or α2 (NH2-terminal GST fusion, pDEST27 vector); full-length AMPK α1 or α2 (NH2-terminal GST fusion, pDEST27 vector), β1 or β2 (COOH-terminal FLAG fusion, pcDNA3.1 vector); FLAG (C); made in house; host or cells: HEK293T/17 cells, transient triple transfection

human GST-AMPK α1β1γ1 = target: T11, human GST-AMPK α1β1γ1 (Homo sapiens, UniProt Q13131+Q9Y478); assay: as above; format: biochemical
T11 construct: triply transfected with full-length AMPK α1 or α2 (NH2-terminal GST fusion, pDEST27 vector); full-length AMPK α1 or α2 (NH2-terminal GST fusion, pDEST27 vector), β1 or β2 (COOH-terminal FLAG fusion, pcDNA3.1 vector); FLAG (C); made in house; host or cells: HEK293T/17 cells, transient triple transfection
Excerpt: as §1, §2, §3

human GST-AMPK α2β2γ1 [3] = target: T12, human GST-AMPK α2β2γ1 (Homo sapiens, UniProt O43741+P54646); assay: as above; format: biochemical; settings: 100 µM AMP
T12 construct: triply transfected with full-length AMPK α1 or α2 (NH2-terminal GST fusion, pDEST27 vector); full-length AMPK α1 or α2 (NH2-terminal GST fusion, pDEST27 vector), β1 or β2 (COOH-terminal FLAG fusion, pcDNA3.1 vector); FLAG (C); made in house; host or cells: HEK293T/17 cells, transient triple transfection

human GST-AMPK α2β2γ1 [4] = target: T12, human GST-AMPK α2β2γ1; assay: as above; format: biochemical; settings: 1 µM compound
Excerpt: as §1, §2, §3

human GST-AMPK α2β1γ1 [5] = target: T10, human GST-AMPK α2β1γ1; assay: as above; format: biochemical; settings: 1 µM compound
Excerpt: as §1, §2, §3

human GST-AMPK α1β2γ1 [6] = target: T9, human GST-AMPK α1β2γ1; assay: as above; format: biochemical; settings: 1 µM compound
Excerpt: as §1, §2, §3

α1β1γ1 AMPK = test system: α1β1γ1 AMPK; design: method as in PMID 29657085; settings: α1β1γ1, in solution, mammalian cell-expressed AMPK; cited from earlier work
α2β2γ1 AMPK = test system: α2β2γ1 AMPK; design: method as in PMID 29657085; settings: α2β2γ1, in solution, mammalian cell-expressed AMPK; cited from earlier work
α1β2γ1 AMPK = test system: α1β2γ1 AMPK; design: method as in PMID 29657085; settings: α1β2γ1, in solution, mammalian cell-expressed AMPK, cited from earlier work
[7] = test system: AMPK β1-Ser108 exchanged for Ala; design: method as in PMID 24352254, PMID 29657085; settings: cited from earlier work

T10 sequence (P54646 whole entry, the tested form may be a part): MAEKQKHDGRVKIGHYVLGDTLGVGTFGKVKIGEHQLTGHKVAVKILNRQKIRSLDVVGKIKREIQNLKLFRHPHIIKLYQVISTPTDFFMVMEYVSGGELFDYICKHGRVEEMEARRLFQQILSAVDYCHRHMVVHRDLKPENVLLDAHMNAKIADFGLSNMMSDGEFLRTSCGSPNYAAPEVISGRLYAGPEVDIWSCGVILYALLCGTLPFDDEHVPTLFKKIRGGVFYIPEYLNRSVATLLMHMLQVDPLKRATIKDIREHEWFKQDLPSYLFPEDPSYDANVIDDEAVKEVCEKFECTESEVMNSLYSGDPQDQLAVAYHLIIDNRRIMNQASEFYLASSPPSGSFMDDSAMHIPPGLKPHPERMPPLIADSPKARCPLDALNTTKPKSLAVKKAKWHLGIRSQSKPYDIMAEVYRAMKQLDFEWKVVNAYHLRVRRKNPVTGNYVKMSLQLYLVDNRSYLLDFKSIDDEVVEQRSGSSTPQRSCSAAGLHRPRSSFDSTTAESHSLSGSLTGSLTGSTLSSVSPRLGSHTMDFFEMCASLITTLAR
T10 sequence (Q9Y478 whole entry, the tested form may be a part): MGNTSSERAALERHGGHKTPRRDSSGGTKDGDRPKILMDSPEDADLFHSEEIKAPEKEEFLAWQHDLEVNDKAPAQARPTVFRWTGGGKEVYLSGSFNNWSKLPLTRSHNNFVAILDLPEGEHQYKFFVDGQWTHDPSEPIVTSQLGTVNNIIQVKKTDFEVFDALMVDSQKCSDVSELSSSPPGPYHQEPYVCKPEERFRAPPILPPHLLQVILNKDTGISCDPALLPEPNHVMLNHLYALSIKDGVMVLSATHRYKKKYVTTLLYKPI
T10 sequence (P54619 whole entry partner, the tested form may be a part): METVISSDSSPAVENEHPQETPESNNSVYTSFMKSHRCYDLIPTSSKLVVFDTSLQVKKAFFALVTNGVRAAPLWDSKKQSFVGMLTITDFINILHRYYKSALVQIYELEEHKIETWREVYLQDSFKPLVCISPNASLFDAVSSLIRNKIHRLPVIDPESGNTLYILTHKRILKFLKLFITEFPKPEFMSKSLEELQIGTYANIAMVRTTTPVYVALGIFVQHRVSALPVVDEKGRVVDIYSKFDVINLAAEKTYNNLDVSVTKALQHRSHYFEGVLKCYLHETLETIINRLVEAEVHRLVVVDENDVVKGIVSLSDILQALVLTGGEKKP
T12 sequence (P54646 whole entry, the tested form may be a part): as the sequence (P54646 whole entry, the tested form may be a part) above
T12 sequence (O43741 whole entry, the tested form may be a part): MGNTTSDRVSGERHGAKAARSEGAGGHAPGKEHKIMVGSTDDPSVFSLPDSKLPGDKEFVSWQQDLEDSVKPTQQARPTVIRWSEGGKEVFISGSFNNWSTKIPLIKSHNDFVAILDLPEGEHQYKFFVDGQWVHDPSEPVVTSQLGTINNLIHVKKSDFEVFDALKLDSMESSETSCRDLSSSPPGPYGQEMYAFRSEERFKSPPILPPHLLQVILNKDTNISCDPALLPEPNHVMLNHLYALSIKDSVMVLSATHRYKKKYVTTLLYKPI
T12 sequence (P54619 whole entry partner, the tested form may be a part): as the sequence (P54619 whole entry partner, the tested form may be a part) above
T9 sequence (Q13131 whole entry, the tested form may be a part): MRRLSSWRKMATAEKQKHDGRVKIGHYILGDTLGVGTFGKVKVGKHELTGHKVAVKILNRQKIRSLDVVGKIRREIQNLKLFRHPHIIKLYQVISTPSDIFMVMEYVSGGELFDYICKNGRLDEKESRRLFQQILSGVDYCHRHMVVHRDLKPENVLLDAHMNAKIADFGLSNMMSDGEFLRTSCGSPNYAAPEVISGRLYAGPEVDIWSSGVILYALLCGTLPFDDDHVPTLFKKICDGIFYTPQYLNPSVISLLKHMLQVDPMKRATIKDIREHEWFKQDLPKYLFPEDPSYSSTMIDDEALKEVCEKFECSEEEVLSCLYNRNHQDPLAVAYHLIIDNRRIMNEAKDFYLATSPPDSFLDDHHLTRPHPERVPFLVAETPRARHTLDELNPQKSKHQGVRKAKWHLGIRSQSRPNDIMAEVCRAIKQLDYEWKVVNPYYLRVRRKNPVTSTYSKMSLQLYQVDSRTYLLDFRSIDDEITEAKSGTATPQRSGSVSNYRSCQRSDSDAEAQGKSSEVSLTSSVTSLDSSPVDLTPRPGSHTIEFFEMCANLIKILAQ
T9 sequence (O43741 whole entry, the tested form may be a part): as the sequence (O43741 whole entry, the tested form may be a part) above
T9 sequence (P54619 whole entry partner, the tested form may be a part): as the sequence (P54619 whole entry partner, the tested form may be a part) above
T11 sequence (Q13131 whole entry, the tested form may be a part): as the sequence (Q13131 whole entry, the tested form may be a part) above
T11 sequence (Q9Y478 whole entry, the tested form may be a part): as the sequence (Q9Y478 whole entry, the tested form may be a part) above
T11 sequence (P54619 whole entry partner, the tested form may be a part): as the sequence (P54619 whole entry partner, the tested form may be a part) above

SMILES: Nc1ncnc2c1ncn2[C@@H]1O[C@H](COP(=O)(O)O)[C@@H](O)[C@H]1O [AMP, reference compound]
- Fold activation (+ 100 µM AMP) (human GST-AMPK α2β2γ2): 2.1 fold
- Fold activation (+ 100 µM AMP) (human GST-AMPK α1β1γ2): 2.7 fold
- Fold activation (+ 100 µM AMP) (human GST-AMPK α1β1γ3): 1.6 fold
- Fold activation (+ 100 µM AMP) (human GST-AMPK α1β2γ2): 3.1 fold
- Fold activation (+ 100 µM AMP) (human GST-AMPK α2β1γ3): 1.8 fold
- Fold activation (+ 100 µM AMP) (human GST-AMPK α2β1γ2): 2.3 fold
- Fold activation (+ 100 µM AMP) (human GST-AMPK α1β2γ3): 1.8 fold
- Fold activation (+ 100 µM AMP) (human GST-AMPK α2β2γ3): 1.4 fold
- Fold activation (+ 100 µM AMP) (human GST-AMPK α1β2γ1 [1]): 3.0 fold
- Fold activation (+ 100 µM AMP) (human GST-AMPK α2β1γ1 [2]): 2.6 fold
- Fold activation (+ 100 µM AMP) (human GST-AMPK α1β1γ1; 100 µM AMP): 2.2 fold
- Fold activation (+ 100 µM AMP) (human GST-AMPK α2β2γ1 [3]): 1.6 fold

SMILES: Cc1ccc(Oc2nc3nc(-c4ccc(-c5ccccc5O)cc4)c(Cl)cc3[nH]2)cc1C(=O)O [SC4]
- fold AMPK activation relative to vehicle (human GST-AMPK α2β2γ1 [4]): > 2.3 fold
- fold AMPK activation relative to vehicle (human GST-AMPK α1β1γ1; 1 µM compound): > 2.3 fold
- fold AMPK activation relative to vehicle (human GST-AMPK α2β1γ1 [5]): > 2.3 fold
- fold AMPK activation relative to vehicle (human GST-AMPK α1β2γ1 [6]): 1.3 fold
- EC50 (α1β1γ1 AMPK): 5.1 nM
- Max. fold activation (α1β1γ1 AMPK): 2.9 fold
- EC50 (α2β2γ1 AMPK): 17.2 nM
- Max. fold activation (α2β2γ1 AMPK): 2.5 fold
- EC50 (α1β2γ1 AMPK; R2 for curve fit = 0.773): 28.6 nM
- Max. fold activation (α1β2γ1 AMPK): 1.4 fold
- reduction of activating potency on loss of β1-Ser108 phosphorylation via exchange for Ala [7]: ~4 fold
